The values below come from patent US10647680B2, “Urea compound, preparation method therefor and medical use thereof” (Ancureall Pharmaceutical (Shanghai) Co., Ltd., priority 2016, dated 2020).

Data set [1] concerns the target T1, CYP2B6 (Homo sapiens, UniProt P20813).
T1 construct: human liver microsomes (BD Gentest) (0.5 mg/mL); tissue BD Gentest; host or cells: human liver microsomes
T1 sequence (P20813 1-491): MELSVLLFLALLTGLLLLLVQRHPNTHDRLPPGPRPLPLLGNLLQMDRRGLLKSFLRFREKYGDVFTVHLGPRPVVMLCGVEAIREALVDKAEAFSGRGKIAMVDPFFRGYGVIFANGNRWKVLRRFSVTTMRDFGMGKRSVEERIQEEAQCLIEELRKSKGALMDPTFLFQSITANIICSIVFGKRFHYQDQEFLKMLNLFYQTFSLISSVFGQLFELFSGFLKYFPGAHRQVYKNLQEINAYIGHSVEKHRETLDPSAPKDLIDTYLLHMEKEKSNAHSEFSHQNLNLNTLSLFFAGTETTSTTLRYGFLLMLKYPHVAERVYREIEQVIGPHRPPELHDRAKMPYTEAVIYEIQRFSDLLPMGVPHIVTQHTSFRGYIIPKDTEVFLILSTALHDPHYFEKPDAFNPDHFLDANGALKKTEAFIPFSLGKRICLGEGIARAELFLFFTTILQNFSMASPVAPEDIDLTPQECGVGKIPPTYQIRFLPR
Kind of data set: P450 enzyme inhibition, CYP2B6. The data set is classed as in vitro ADME. Particulars: human liver microsomes. As for the experimental part: (§1) Eight cytochrome p450 enzyme inhibition reactions of human liver microsomes were performed using compound 77 of the present invention as a representative example.
(§2) The main reaction systems and processes: in 37° C. water bath, the test compounds (7 concentrations, 0, 0.25, 0.5, 5, 10, 25, and 50 uM; the final methanol concentration was 1% in the system), human liver microsomes (BD Gentest) (0.5 mg/mL) and reducing coenzyme II (Roche 10621706001) (1 mg/mL) and the corresponding cytochrome p450 enzyme probe substrate were co-incubated for 5 to 20 minutes. Among them, (1) the probe substrate for CYP1A2 was Phenacetin ([…]) (Sigma), and the selective inhibitor alpha-naphthoflavone (2 uM) (Sigma) was for parallel detection as positive control, and they were incubated for 20 minutes. (2) The probe substrate for CYP2b6 was Bupropion (40 uM) (Sigma) and the selective inhibitor Ticlopidine (10 uM) (Sigma) was for parallel detection as positive control, and they were incubated for 20 minutes. (3) The probe substrate of CYP2C8 was Amodiaquine (1 uM) (Sigma), and the selective inhibitor Montelukast (10 uM) (Sigma) was for parallel detection as positive control, and they were incubated for 20 minutes. (4) The probe substrate for CYP2C9 was Diclofenac (2.5 uM) (Sigma), and the selective inhibitor Sulphaphenazole (10 uM) (Sigma) was for parallel detection as positive control, and they were incubated for 20 minutes. (5) The probe substrate for CYP2C19 was Mephenytoin (40 uM) (Sigma), and the selective inhibitor Ticlopidine (10 uM) (Sigma) was for parallel detection as positive control, and they were incubated for 20 minutes. (6) The probe substrate for CYP2D6 was Dextromethorphan (5 uM) (Sigma), and the selective inhibitor Quinidine (10 uM) (Sigma) was for parallel detection as positive control, and they were incubated for 20 minutes. (7) The probe substrates for CYP3A4-T and CYP3A4-M were Testosterone (5 uM) (Sigma) and Midazolam (5 uM) (Sigma), respectively, and the selective inhibitor was Ketoconazole (1 uM) (Sigma), they were detected in parallel as positive control, and incubated for 5 minutes. The reaction system was quenched by adding methanol containing the corresponding internal standard. The internal standard compound was Tolbutamide (Sigma). The concentration of the corresponding metabolites was determined by LC/MS/MS. For the data analysis, the decrease in peak area of the metabolite of the sample after addition of compound 77 relative to the peak area of the metabolite of the solvent control sample was used to calculate the IC50 (concentration of the test substance at 50% inhibition). The percentages of peak areas of metabolites of CYP1A2, CYP2B6, CYP2C8, CYP2C9, 15CYP2C19, CYP2D6, CYP3A4-T, and CYP3A4-M probe substrates after addition of different concentrations of compound 77 and selective inhibitors relative to the solvent control peak areas were shown in the Table 7.
Background: Microsomes from liver hold many membrane-bound enzymes, among them those of drug oxidation.

The target in data set [2] is T2, CYP2C8 (Homo sapiens, UniProt P10632).
T2 construct: human liver microsomes (BD Gentest) (0.5 mg/mL); tissue BD Gentest; host or cells: human liver microsomes
T2 sequence (P10632 1-490): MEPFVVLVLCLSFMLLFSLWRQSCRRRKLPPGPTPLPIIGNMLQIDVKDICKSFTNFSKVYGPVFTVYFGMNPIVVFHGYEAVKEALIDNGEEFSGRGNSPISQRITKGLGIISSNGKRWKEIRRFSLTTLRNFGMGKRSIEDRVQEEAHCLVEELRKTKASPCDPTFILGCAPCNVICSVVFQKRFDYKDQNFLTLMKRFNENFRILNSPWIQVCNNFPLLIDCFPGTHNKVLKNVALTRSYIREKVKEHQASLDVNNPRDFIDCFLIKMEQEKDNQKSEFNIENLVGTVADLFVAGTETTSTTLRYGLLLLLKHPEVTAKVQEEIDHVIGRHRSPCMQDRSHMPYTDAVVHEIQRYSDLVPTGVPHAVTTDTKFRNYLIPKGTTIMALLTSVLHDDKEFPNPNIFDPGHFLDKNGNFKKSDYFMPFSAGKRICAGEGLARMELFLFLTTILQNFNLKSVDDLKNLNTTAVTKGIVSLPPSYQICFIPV
Kind of data set: P450 enzyme inhibition, CYP2C8. The data set is classed as in vitro ADME. The note with it: human liver microsomes. On the procedure:
as §1, §2

pIC50: −log10 of the molar value.

For the molecule `COCCOc1ccc2c(c1)ncn2-c1ccc(NC(=O)Nc2cc(C(C)(C)C)n[nH]2)cc1` [Compound 77, 1-(5-tert-butyl-2H-pyrazol-3-yl)-3-{4-[5-(2-methoxyl-ethoxyl)-benzimidazol-1-yl]-phenyl}-urea], the “CYP2B6 Remaining %” value in data set [1] (Concentration 0.25 uM) worked out at 106.1%; in data set [1] (Concentration 0.5 uM), 109.6%; in data set [1] (Concentration 5 uM), 100.4%; in data set [1] (Concentration 10 uM), 90.1%; in data set [1] (Concentration 25 uM), 64.6%; in data set [1] (Concentration 50 uM) it was 40.1%. The pIC50 in data set [1] (read-out: half-inhibitory concentration (IC50) of CYP2B6) was 4.41; in data set [2], at most 4.30. For the same molecule, the “CYP2C8 Remaining %” value in data set [2] (Concentration 0.25 uM) was found to be 99.2%; in data set [2] (Concentration 0.5 uM), 103.5%; in data set [2] (Concentration 5 uM), 90.7%; in data set [2] (Concentration 10 uM), 88.5%; in data set [2] (Concentration 25 uM), 81.7%; in data set [2] (Concentration 50 uM) it was 49.1%.
